Measured values from patent publication EP0306698A1, “Condensed diazepinones, processes for their preparation, and medicaments containing these compounds” (Dr. Karl Thomae GmbH, priority 1987, dated 1989).
Structures can show the parent of a compound that is named as a salt. Where two headings read alike, the source gives them in different places.

Assays:
[1] = tested on: Acetylcholinwirkung auf Herzfrequenz; assay: Inhibition of the acetylcholine effect on heart rate; type: in vivo, Meerschweinchen; details: for ED50: Cavia porcellus, 5 min, anaesthetised guinea pig, acetylcholine 5 min after test substance, heart rate
From the text: (§1) Dabei wurde die Herzfrequenz durch extrakorporale Ableitung des EKG, der Ausatemwiderstand nach Konzett-Rößler und die Kontraktion […] an den untersuchten Organen wurden Dosis-Wirkungskurven aufgenommen und daraus -log EDso-Werte bestimmt. Ergebnisse siehe Tabelle V.

[2] = tested on: Acetylcholinwirkung auf Blase; assay: Inhibition of the acetylcholine effect on bladder; type: in vivo, Meerschweinchen; details: for ED50: Cavia porcellus, 5 min, anaesthetised guinea pig, acetylcholine 5 min after test substance, bladder contraction, read-out: -log ED50 Blase (converted)
From the text: as §1

Speichelsekretion = assay: Inhibition of pilocarpine-induced salivation in the rat; type: in vivo, Ratte; details: for ED50: Rattus norvegicus, iv, dose reducing saliva volume by 50%, pilocarpine 2 mg/kg s.c., read-out: Speichelsekretionshemmung (Ratte) ED50
Protocol: Nach Lavy und Mulder (Arch. int. Pharmacodyn. 178, 437-445, (1969)) erhielten mit 1,2 g/kg Urethan narkotisierte männliche THOM-Ratten steigende Dosen der Substanz i.v.. Die Speichelsekretion wurde durch s.c. Gabe von 2 mg/kg Pilocarpin ausgelöst. Der Speichel wurde mit Fließpapier aufgesaugt, die von ihm eingenommene Fläche alle 5 Minuten planimetrisch bestimmt. Die Dosis der Substanz, die das Speichelvolumen um 50% verminderte, wurde graphisch ermittelt. Ergebnisse siehe Tabelle 11.

[3] = tested on: Acetylcholinwirkung auf Bronchien; assay: Inhibition of the acetylcholine effect on bronchi; type: in vivo, Meerschweinchen; details: for ED50: Cavia porcellus, 5 min, anaesthetised guinea pig, acetylcholine 5 min after test substance, expiratory resistance, read-out: -log ED50 Bronchien (converted)
From the text: as §1

[4] = molecular target: T1, muscarinischen Rezeptoren (Herz) (Rattus norvegicus, UniProt P10980); assay: biochemical; type: binding, Ratte; details: whole heart homogenate 1:400, 0,3 nmolar 3H-NMS, 30°C, 45 min; read-out: Rezeptor-Bindungs-Tests -log IC50 Herz (converted)
T1 construct: Das Gesamtherz wurde mit einer Schere zerkleinert; Alle Organe wurden abschließend in einem Potter homogenisiert; from tissue; host or cells: rat whole heart homogenate
T1 sequence (P10980 1-466): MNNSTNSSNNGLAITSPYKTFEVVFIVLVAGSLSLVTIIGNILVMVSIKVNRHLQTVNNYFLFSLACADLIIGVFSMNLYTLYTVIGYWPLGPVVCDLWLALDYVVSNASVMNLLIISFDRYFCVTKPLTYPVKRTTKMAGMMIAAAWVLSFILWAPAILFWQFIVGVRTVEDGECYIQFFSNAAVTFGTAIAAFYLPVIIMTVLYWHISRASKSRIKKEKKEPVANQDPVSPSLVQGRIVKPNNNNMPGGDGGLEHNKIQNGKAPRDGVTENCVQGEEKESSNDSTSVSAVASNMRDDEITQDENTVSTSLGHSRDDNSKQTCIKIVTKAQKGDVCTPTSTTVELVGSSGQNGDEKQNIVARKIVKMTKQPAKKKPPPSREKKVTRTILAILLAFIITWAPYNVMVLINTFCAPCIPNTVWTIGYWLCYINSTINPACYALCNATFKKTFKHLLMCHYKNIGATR
From the text: Als Organspender dienten männliche Sprague-Dawley-Ratten mit 180-220 g Körpergewicht. Nach Entnahme von Herz und Submandibularis wurden alle weiteren Schritte in eiskaltem Hepes-HCI-Puffer (pH 7,4; 100 m molar NaCI, 10 m molar MgCI2) vorgenommen. Das Gesamtherz wurde mit einer Schere zerkleinert. Alle Organe wurden abschließend in einem Potter homogenisiert.
Für den Bindungstest wurden die Organhomogenate in folgender Weise verdünnt: • Gesamtherz 1:400 • Submandibularis 1:400
Die Inkubation der Organhomogenate erfolgte bei einer bestimmten Konzentration des Radioliganden und einer Konzentrationsreihe der nichtradioaktiven Testsubstanzen im Eppendorf-Zentrifugenröhrchen bei 30°C. Die Inkubationsdauer betrug 45 Minuten. Als Radioligand wurde 0,3 nmolar ^3H-N-Methylscopolamin (^3H-NMS) verwendet. Die Inkubation wurde durch Zugabe von eiskaltem Puffer mit nachfolgender Vakuumfiltration beendet. Die Filter wurden mit kaltem Puffer gespült und ihre Radioaktivität bestimmt. Sie repräsentiert die Summe von spezifischer und unspezifischer Bindung von ^3H-NMS. Der Anteil der unspezifischen Bindung wurde definiert als jene Radioaktivität die in Anwesenheit von 1 u. molar Quinciidinylbenzilat gebunden wurde. Es wurden immer Vierfachbestimmungen vorgenommen. Die ICso-Werte der nicht markierten Testsubstanzen wurden graphisch bestimmt. Sie repräsentieren jene Konzentration der Testsubstanz, bei welcher die spezifische Bindung von ^3H-NMS an die muscarinischen Rezeptoren in den verschiedenen Organen um 50 % gehemmt wurde.

Solubility in water = type: physicochemical; details: for solubility: water, read-out: Löslichkeit in Wasser; for Löslichkeit in Wasser: result in words
[5] = molecular target: T2, muskarinischen Rezeptoren (Tränendrüsen) (Rattus norvegicus, UniProt P08483); details: in vivo, iv
[6] = molecular target: T3, muskarinischen Rezeptoren (Atrium) (Rattus norvegicus, UniProt P10980); assay: Receptor binding test in vivo (3H-NMS), heart atrium; parameters: species or system Ratten
T3 construct: wurden die Tiere getötet, das Herz, die Bronchien und die Tränendrüsen entnommen; from tissue; host or cells: rat heart (atrium, ventricle), in vivo labelling with 3H-NMS
T3 sequence (P10980 1-466): T1 sequence (P10980 1-466)
From the text: Für diese Experimente wurden weibliche Ratten mit einem Körpergewicht von ca. 200 g verwendet. Vor Versuchsbeginn wurden die Tiere mit einer Dosis von 1,25 g/kg Urethan narkotisiert. Die Tiere erhielten jeweils die vorgesehene Dosis der Prüfsubstanz durch i.v. Injektion. […] Nach weiteren 15 Minuten wurden die Tiere getötet, das Herz, die Bronchien und die Tränendrüsen entnommen. Diese Organe wurden in Soluene R aufgelöst und die Radioaktivität bestimmt. Diese Messwerte wurden als Totalbindung angenommen. […] Aus diesen Versuchen wurden für die einzelnen Organe IDso-Werte ermittelt. Die IDso-Werte sind Dosen der Prüfsubstanzen, die 50% der spezifischen Bindung von ^3H-NMS an die muskarinischen Rezeptoren der jeweiligen Organe hemmten.

[7] = molecular target: T4, muskarinischen Rezeptoren (Ventrikel) (Rattus norvegicus, UniProt P10980); assay: Receptor binding test in vivo (3H-NMS), heart ventricle; parameters: species or system Ratten; details: iv
T4 construct: wurden die Tiere getötet, das Herz, die Bronchien und die Tränendrüsen entnommen; from tissue; host or cells: rat heart (atrium, ventricle), in vivo labelling with 3H-NMS
T4 sequence (P10980 1-466): T1 sequence (P10980 1-466)
Protocol: Für diese Experimente wurden weibliche Ratten mit einem Körpergewicht von ca. 200 g verwendet. Vor Versuchsbeginn wurden die Tiere mit einer Dosis von 1,25 g/kg Urethan narkotisiert. Die Tiere erhielten jeweils die vorgesehene Dosis der Prüfsubstanz durch i.v. Injektion. Nach Ablauf von 15 Minuten wurde auf gleiche Weise 113 ng/kg ^3H-N-Methylscopolamin (^3H-NMS) gegeben. Nach weiteren 15 Minuten wurden die Tiere getötet, das Herz, die Bronchien und die Tränendrüsen entnommen. Diese Organe wurden in Soluene R aufgelöst und die Radioaktivität bestimmt. Diese Messwerte wurden als Totalbindung angenommen. […] Aus diesen Versuchen wurden für die einzelnen Organe IDso-Werte ermittelt. Die IDso-Werte sind Dosen der Prüfsubstanzen, die 50% der spezifischen Bindung von ^3H-NMS an die muskarinischen Rezeptoren der jeweiligen Organe hemmten.

M1 = M1 activity in the rat: inhibition of blood pressure rise caused by McN-A-343; type: in vivo, Ratte
Protocol: (§2) Die angewandte Methode wurde von Hammer und Giachetti (Life Sciences 31, 2991-2998 (1982)) beschrieben. 5 Minuten nach intravenöser Injektion steigender Dosen der Substanz wurden entweder der rechte Vagus elektrisch stimuliert (Frequenz: 25 Hz; Pulsbreite: 2ms; Reizdauer: 30s; Voltzahl: supramaximal) oder 0,3 mg/kg McN-A-343 in männliche THOM-Ratten intravenös injiziert. Die durch Vagusstimulation hervorgerufene Bradykardie und der durch McN-A-343 verursachte Blutdruckanstieg wurden bestimmt. Die Dosis der Substanzen, die entweder die vagale Bradykardie (M2) oder den Blutdruckanstieg (Mi) um 50% verminderte, wurde graphisch ermittelt. Ergebnisse siehe Tabelle II.

[8] = molecular target: T2, muskarinischen Rezeptoren (Tränendrüsen); assay: in vivo; details: iv, 0.5 h, read-out: ID50 Tränendrüsen
M2 = M2 activity in the rat: inhibition of bradycardia induced by vagus stimulation; type: in vivo, Ratte; details: i.v.; dose reducing vagal bradycardia by 50%; 5 min after injection
Protocol: as §2

[9] = ratio of ED50 salivation inhibition to ED50 M2 activity, rat
[10] = i.v., dose reducing McN-A-343 (0,3 mg/kg) blood pressure rise by 50%, 5 min

T2 sequence (P08483 whole entry): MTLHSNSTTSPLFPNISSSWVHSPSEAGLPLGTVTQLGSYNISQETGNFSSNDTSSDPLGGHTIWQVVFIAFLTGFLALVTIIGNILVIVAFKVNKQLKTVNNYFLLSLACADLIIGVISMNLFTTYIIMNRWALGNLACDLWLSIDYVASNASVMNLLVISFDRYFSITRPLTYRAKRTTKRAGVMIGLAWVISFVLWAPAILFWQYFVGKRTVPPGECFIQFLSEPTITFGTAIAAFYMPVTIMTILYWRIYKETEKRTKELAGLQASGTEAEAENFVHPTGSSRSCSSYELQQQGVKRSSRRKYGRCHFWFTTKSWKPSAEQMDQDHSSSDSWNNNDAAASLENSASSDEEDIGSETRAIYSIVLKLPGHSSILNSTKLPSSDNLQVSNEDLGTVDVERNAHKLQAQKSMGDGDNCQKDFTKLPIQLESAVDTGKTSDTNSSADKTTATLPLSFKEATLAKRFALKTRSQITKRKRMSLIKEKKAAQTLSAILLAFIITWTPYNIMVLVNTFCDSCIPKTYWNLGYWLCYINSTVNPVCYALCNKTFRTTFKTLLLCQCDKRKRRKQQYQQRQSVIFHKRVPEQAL

Structure (SMILES) | ED50 [1] | ED50 [2] | ED50 (Speichelsekretion) | ED50 [3] | IC50 [4] | M2-Aktivität (Ratte) ED50 (M2) | M1-Aktivität (Ratte) ED50 (M1; [10]) | further results
CN1CCN(CC(=O)N2c3ccccc3C(=O)Nc3cccnc32)CC1 [Y, 5,11-Dihydro-11-[(4-methyl-1-piperazinyl)acetyl]-6H-pyrido[2.3-b][1,4]benzodiazepin-6-on, reference compound] | 1.41 µmol/kg | 4.37 µmol/kg | 0.084 mg/kg | 0.269 µmol/kg | – | – | – | –
Cl.O=C1Nc2cccnc2N(C(=O)N2CCCC(CCCN3CCCC3)C2)c2ccccc21 (stereo not drawn) [B, 5,11-Dihydro-11-[[3-[3-(1-pyrrolidinyl)propyl]-1-piperidinyl]carbonyl]-6H-pyrido[2,3-b][1,4]-benzodiazepin-6-on-hydrochlorid] | 0.0661 µmol/kg | 0.692 µmol/kg | – | 0.0871 µmol/kg | 10 nM | – | – | solubility (Solubility in water; hydrochloride salt): ~3000 µg/mL
CN(CCC1CCCN(C(=O)N2c3ccccc3C(=O)Nc3cccnc32)C1)C1CCCC1 (stereo not drawn) [E, 11-[[3-[2-[(Cyclopentyl)methylamino]ethyl]-1-piperidinyl]carbonyl]-5,11-dihydro-6H-pyrido[2,3-b]-[1,4]-benzodiazepin-6-on-hydrochlorid] | 0.0813 µmol/kg | 0.891 µmol/kg | – | 0.0977 µmol/kg | 3.02 nM | – | – | –
CN1C2CCC1CC(OC(=O)C(CO)c1ccccc1)C2 (racemic) [Z, Atropin, reference compound] | – | – | – | – | – | – | – | ID50 Tränendrüsen [5]: 0,2 mg/kg; -log ED50 Herz ([1]; in vivo): 7,70 Molkg^-1; -log ED50 Blase ([2]; in vivo): 7,03 Molkg^-1; Verhältnis Speichelsekretionshemmung zu M2-Aktivität (Speichelsekretion; in vivo): 2,2; Verhältnis der ID50 Tränendrüse zu ID50 des Atrium ([6]; in vivo): 1,5; ID50 Herz Atrium ([6]; in vivo, iv): 0,08 mg/kg; ID50 Herz Ventrikel ([7]; in vivo): 0,03 mg/kg; -log ED50 Bronchien ([3]; in vivo): 7,96 Molkg^-1; M1-Aktivität (Ratte) ED50 (M1; in vivo): 16 µg/kg
CCN(CC)CCCCC1CCCCN1C(=O)N1c2ccccc2C(=O)Nc2cccnc21 (stereo not drawn) [Beispiel 4, 11-[[2-[4-(Diethyiamino)butyl]-1-piperidinyl]carbonyl]-5,11-dihydro-6H-pyrido[2,3-b][1,4]benzodiazepin-6-on] | – | – | – | – | – | – | – | Löslichkeit in Wasser (Solubility in water; dihydrochloride): wasserlösliche
O=C1Nc2cccnc2N(C(=O)N2CCCC(CCCN3CCCCC3)C2)c2ccccc21 (stereo not drawn) [A, 5,11-Dihydro-11-[[3-[3-(1-piperidinyl)propyl]-1-piperidinyl]carbonyl]-6H-pyrido[2,3-b][1,4]-benzodiazepin-6-on] | 0.0871 µmol/kg | 1.35 µmol/kg | 0.035 mg/kg | 0.117 µmol/kg | 2 nM | 6,9 µg/kg | 49 µg/kg | ED50 [8]: 0.2 mg/kg; Verhältnis Speichelsekretionshemmung zu M2-Aktivität (Speichelsekretion; [9]): 5; ED50 ([6]; rat, iv, 0.5 h; read-out: ID50 Herz Atrium): 0.01 mg/kg; Löslichkeit in Wasser (Solubility in water; methanesulfonate salt): leicht löslich; solubility (Solubility in water; hydrochloride salt): ~2000 µg/mL; solubility (Solubility in water; salt with N-Cyclohexylsulfamidsäure): ~10000 µg/mL
CS(=O)(=O)O.O=C1Nc2cccnc2N(C(=O)N2CCCC(CCN3CCCCC3)C2)c2ccccc21 (stereo not drawn) [C, 5,11-Dihydro-11-[[3-[2-(1-piperidinyl)ethyl]-1-piperidinyl]carbonyl]-6H-pyrido[2,3-b][1,4]-benzodiazepin-6-on-methansulfonat] | 0.0427 µmol/kg | 0.355 µmol/kg | 0.058 mg/kg | 0.0417 µmol/kg | 3.02 nM | 7,6 µg/kg | 39 µg/kg | Verhältnis Speichelsekretionshemmung zu M2-Aktivität (Speichelsekretion; [9]): 7,6
O=C1Nc2ccccc2N(C(=O)N2CCCC(CCN3CCCCC3)C2)c2ncccc21 (stereo not drawn) [G, 6,11-Dihydro-11-[[3-[2-(1-piperidinyl)ethyl]-1-piperidinyl]carbonyl]-5H-pyrido[23-b][1,5]-benzodiazepin-5-on] | 0.0148 µmol/kg | 0.302 µmol/kg | 0.00683 mg/kg | 0.0263 µmol/kg | 3.98 nM | 8,13 µg/kg | 7,16 µg/kg | Verhältnis Speichelsekretionshemmung zu M2-Aktivität (Speichelsekretion; [9]): 20,00
O=C1Nc2cccnc2N(C(=O)N2CCCC(CCN3CCCC3)C2)c2ccccc21 (stereo not drawn) [D, 5,11-Dihydro-11-[[3-(2-(1-pyrrolidinyl)ethyl]-1-piperidinyl]carbonyl]-6H-pyrido[2,3-b][1,4]-benzodiazepin-6-on-hydrochlorid] | 0.0479 µmol/kg | 0.708 µmol/kg | – | 0.0324 µmol/kg | 6.03 nM | – | – | –
CCN(CC)CC1CCCCN1CC(=O)N1c2ccccc2C(=O)Nc2cccnc21 (stereo not drawn) [X, 11-[[2-[(Diethylamino)methyl]-1-piperidinyl]acetyl]-5,11-dihydro-6H-pyrido[2,3-b][1,4]-benzodiazepin-6-on, reference compound] | 1.45 µmol/kg | 18.6 µmol/kg | – | 2.63 µmol/kg | 151 nM | 160 µg/kg | 988 µg/kg | ED50 [8]: > 30 mg/kg; ED50 ([6]; rat, iv, 0.5 h, read-out: ID50 Herz Atrium): 1 mg/kg; ED50 ([7]; rat, 0.5 h, read-out: ID50 Herz Ventrikel): 0.6 mg/kg
O=C1Nc2cccnc2N(C(=O)N2CCCC(CCN3CCCCCC3)C2)c2ccccc21 (stereo not drawn) [F, 5,11-Dihydro-11-[[3-[2-(hexahydro-1H-1-azepinyl)ethyl]-1-piperidinyl]carbonyl]-6H-pyrido[23-b]-[1,4]benzodiazepin-6-on-hydrochlorid] | 0.0162 µmol/kg | 0.38 µmol/kg | – | 0.0398 µmol/kg | 3.02 nM | – | – | –
